Measurements as given in ChEMBL document CHEMBL1909046, “DrugMatrix in vitro pharmacology data”.

What was measured:
[1] = DRUGMATRIX: Tumor Necrosis Factor (TNF), Non-Selective radioligand binding (ligand: [125I] TNF-alpha); type: cell membranes, Membrane; settings: u-937; Not Active = under 50% inhibition at 10 µM
[2] = molecular target: T1, C-X-C chemokine receptor type 2 (Homo sapiens, UniProt P25025); type: cell membranes, Membrane; settings: cho-k1; also: in other assays of this panel Not Active means under 50% inhibition at 10 µM
T1 sequence (P25025 whole entry): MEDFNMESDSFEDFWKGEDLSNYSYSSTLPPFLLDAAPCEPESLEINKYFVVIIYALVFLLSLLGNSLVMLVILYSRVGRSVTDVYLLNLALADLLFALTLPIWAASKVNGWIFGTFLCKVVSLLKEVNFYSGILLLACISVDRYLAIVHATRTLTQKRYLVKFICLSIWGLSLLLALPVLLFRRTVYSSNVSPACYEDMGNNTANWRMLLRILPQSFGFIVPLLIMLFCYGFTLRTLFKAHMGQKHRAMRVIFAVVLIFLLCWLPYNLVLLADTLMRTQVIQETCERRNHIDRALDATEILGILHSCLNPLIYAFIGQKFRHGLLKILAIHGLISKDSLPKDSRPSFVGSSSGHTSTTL

[3] = molecular target: T2, Alpha-1D adrenergic receptor (Homo sapiens, UniProt P25100); type: cell membranes, HEK293, Membrane; settings: hek293; also: in other assays of this panel Not Active means under 50% inhibition at 10 µM
T2 sequence (P25100 whole entry): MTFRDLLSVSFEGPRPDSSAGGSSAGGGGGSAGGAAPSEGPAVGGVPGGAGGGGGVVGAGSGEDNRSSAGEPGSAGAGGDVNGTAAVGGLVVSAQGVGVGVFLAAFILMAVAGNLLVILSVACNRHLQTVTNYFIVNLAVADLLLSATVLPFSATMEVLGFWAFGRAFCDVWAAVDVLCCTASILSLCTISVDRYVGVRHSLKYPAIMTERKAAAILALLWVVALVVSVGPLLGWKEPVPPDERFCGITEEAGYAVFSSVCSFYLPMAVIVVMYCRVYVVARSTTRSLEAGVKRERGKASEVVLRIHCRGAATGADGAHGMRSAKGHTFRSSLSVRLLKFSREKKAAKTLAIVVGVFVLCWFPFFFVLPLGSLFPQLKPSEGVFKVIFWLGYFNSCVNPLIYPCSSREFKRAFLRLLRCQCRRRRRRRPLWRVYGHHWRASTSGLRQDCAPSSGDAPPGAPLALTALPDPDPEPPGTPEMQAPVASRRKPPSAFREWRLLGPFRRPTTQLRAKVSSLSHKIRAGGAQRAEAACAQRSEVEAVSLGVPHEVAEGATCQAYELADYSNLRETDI

Cytochrome P450 2E1 = Cytochrome P450 2E1 (Homo sapiens, UniProt P05181); settings: bti-tn-5b1-4; also: in other assays of this panel Not Active means under 50% inhibition at 10 µM
Cathepsin G = molecular target: T3, Cathepsin G (Homo sapiens, UniProt P08311); type: tissue-based; settings: neutrophil;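 also: inhibition of Cathepsin G enzyme activity, tested on an AMC-conjugated peptide substrate; in other assays of this panel Not Active means under 50% inhibition at 10 µM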
T3 sequence (P08311 whole entry): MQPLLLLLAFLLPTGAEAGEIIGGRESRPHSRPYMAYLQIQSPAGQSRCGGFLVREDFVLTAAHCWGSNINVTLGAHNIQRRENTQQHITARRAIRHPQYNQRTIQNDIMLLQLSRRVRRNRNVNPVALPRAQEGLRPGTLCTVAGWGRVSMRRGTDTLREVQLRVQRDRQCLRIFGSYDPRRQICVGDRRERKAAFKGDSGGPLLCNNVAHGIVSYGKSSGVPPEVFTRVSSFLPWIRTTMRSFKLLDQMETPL

Neutrophil elastase = molecular target: T4, Neutrophil elastase (Homo sapiens, UniProt P08246); type: tissue-based
T4 sequence (P08246 whole entry): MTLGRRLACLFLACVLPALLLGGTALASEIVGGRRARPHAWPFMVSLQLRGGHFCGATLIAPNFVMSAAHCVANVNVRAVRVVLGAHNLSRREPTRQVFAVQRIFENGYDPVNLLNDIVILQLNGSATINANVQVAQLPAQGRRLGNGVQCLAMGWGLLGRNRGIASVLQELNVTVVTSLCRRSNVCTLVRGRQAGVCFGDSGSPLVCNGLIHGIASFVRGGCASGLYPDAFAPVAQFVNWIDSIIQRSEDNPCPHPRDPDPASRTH

Glycine receptor = Glycine receptor (Rattus norvegicus, UniProt P22771+P24524+P07727+P20781); type: cell membranes, Wistar, Spinal cord, Membrane; also: in other assays of this panel Not Active means under 50% inhibition at 10 µM
Leukotriene C4 synthase = molecular target: T5, Leukotriene C4 synthase (Cavia porcellus, UniProt A6XA80); type: tissue-based, Lung
T5 sequence (A6XA80 whole entry): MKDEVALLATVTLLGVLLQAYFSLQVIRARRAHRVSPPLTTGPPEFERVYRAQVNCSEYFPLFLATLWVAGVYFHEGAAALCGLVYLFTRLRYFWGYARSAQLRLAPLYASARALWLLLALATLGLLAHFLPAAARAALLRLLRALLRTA

Cytochrome P450 2E1, sequence (P05181 whole entry): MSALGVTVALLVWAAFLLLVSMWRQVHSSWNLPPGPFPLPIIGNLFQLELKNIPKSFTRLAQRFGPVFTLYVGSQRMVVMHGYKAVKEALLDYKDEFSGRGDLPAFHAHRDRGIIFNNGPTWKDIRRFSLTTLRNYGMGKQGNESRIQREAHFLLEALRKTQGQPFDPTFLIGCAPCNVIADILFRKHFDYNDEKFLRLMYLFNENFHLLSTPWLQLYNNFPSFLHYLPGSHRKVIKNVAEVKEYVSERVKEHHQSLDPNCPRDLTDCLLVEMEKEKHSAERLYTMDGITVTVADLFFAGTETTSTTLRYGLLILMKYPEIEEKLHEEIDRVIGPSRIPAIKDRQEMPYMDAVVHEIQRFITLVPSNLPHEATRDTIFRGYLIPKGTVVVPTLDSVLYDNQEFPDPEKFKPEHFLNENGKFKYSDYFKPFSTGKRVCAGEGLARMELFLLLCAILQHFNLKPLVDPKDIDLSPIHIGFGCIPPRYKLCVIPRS

COc1ccccc1N
Not Active: IC50 [1] | Ki [1] | IC50 [2] | IC50 [3] | IC50 (Cytochrome P450 2E1) | Ki (Cytochrome P450 2E1) | IC50 (Cathepsin G) | IC50 (Neutrophil elastase) | IC50 (Glycine receptor) | IC50 (Leukotriene C4 synthase)

Cc1c(O)cccc1C(=O)N[C@@H](CSc1ccccc1)[C@H](O)CN1C[C@H]2CCCC[C@H]2C[C@H]1C(=O)NC(C)(C)C
Not Active: IC50 [1] | Ki [1] | IC50 [2] | IC50 [3] | IC50 (Cytochrome P450 2E1) | Ki (Cytochrome P450 2E1) | IC50 (Cathepsin G) | IC50 (Neutrophil elastase) | IC50 (Glycine receptor) | IC50 (Leukotriene C4 synthase)

ClC(Cl)(Cl)Cl [CARBON TETRACHLORIDE]
Not Active: IC50 [1] | Ki [1] | IC50 [2] | IC50 [3] | IC50 (Cathepsin G) | IC50 (Neutrophil elastase) | IC50 (Glycine receptor) | IC50 (Leukotriene C4 synthase)

CC(C)NCC(O)c1ccccc1Cl (stereo unspecified) [CLORPRENALINE]
Not Active: IC50 [1] | Ki [1] | IC50 [2] | IC50 [3] | IC50 (Cytochrome P450 2E1) | Ki (Cytochrome P450 2E1) | IC50 (Cathepsin G) | IC50 (Neutrophil elastase) | IC50 (Glycine receptor) | IC50 (Leukotriene C4 synthase)

C[C@]12CC[C@@H]3c4ccc(O)cc4CC[C@H]3[C@@H]1C[C@@H](O)[C@@H]2O [ESTRIOL]
Not Active: IC50 [1] | Ki [1] | IC50 [2] | IC50 [3] | IC50 (Cytochrome P450 2E1) | Ki (Cytochrome P450 2E1) | IC50 (Cathepsin G) | IC50 (Neutrophil elastase) | IC50 (Glycine receptor) | IC50 (Leukotriene C4 synthase)

C#C[C@]1(O)CC[C@H]2[C@@H]3CCC4=CC(=O)CC[C@]4(C)[C@H]3CC[C@@]21C [ETHISTERONE]
Not Active: IC50 [1] | Ki [1] | IC50 [2] | IC50 [3] | IC50 (Cytochrome P450 2E1) | Ki (Cytochrome P450 2E1) | IC50 (Cathepsin G) | IC50 (Neutrophil elastase) | IC50 (Glycine receptor) | IC50 (Leukotriene C4 synthase)

CC(O)(P(=O)(O)O)P(=O)(O)O [ETIDRONIC ACID]
Not Active: IC50 [1] | Ki [1] | IC50 [2] | IC50 [3] | IC50 (Cytochrome P450 2E1) | Ki (Cytochrome P450 2E1) | IC50 (Cathepsin G) | IC50 (Neutrophil elastase) | IC50 (Glycine receptor) | IC50 (Leukotriene C4 synthase)

CC(=O)OCC(=O)[C@@]1(O)CC[C@H]2[C@@H]3CCC4=CC(=O)CC[C@]4(C)[C@@]3(F)[C@@H](O)C[C@@]21C [FLUDROCORTISONE ACETATE]
Not Active: IC50 [1] | Ki [1] | IC50 [2] | IC50 [3] | IC50 (Cytochrome P450 2E1) | Ki (Cytochrome P450 2E1) | IC50 (Cathepsin G) | IC50 (Neutrophil elastase) | IC50 (Glycine receptor) | IC50 (Leukotriene C4 synthase)

CCOC(=O)c1ncn2c1CN(C)C(=O)c1cc(F)ccc1-2 [FLUMAZENIL]
Not Active: IC50 [1] | Ki [1] | IC50 [2] | IC50 [3] | IC50 (Cytochrome P450 2E1) | Ki (Cytochrome P450 2E1) | IC50 (Cathepsin G) | IC50 (Neutrophil elastase) | IC50 (Glycine receptor) | IC50 (Leukotriene C4 synthase)

CC(=O)OCC(=O)[C@@]12OC(C)(C)O[C@@H]1C[C@H]1[C@@H]3C[C@H](F)C4=CC(=O)C=C[C@]4(C)[C@@]3(F)[C@@H](O)C[C@@]12C [FLUOCINONIDE]
Not Active: IC50 [1] | Ki [1] | IC50 [2] | IC50 [3] | IC50 (Cathepsin G) | IC50 (Neutrophil elastase) | IC50 (Glycine receptor) | IC50 (Leukotriene C4 synthase)

Cc1ccc(C)c(OCCCC(C)(C)C(=O)O)c1 [GEMFIBROZIL]
Not Active: IC50 [1] | Ki [1] | IC50 [2] | IC50 [3] | IC50 (Cytochrome P450 2E1) | Ki (Cytochrome P450 2E1) | IC50 (Cathepsin G) | IC50 (Neutrophil elastase) | IC50 (Glycine receptor) | IC50 (Leukotriene C4 synthase)

CCCCC1=NC2(CCCC2)C(=O)N1Cc1ccc(-c2ccccc2-c2nnn[nH]2)cc1 [IRBESARTAN]
Not Active: IC50 [1] | Ki [1] | IC50 [2] | IC50 [3] | IC50 (Cytochrome P450 2E1) | Ki (Cytochrome P450 2E1) | IC50 (Cathepsin G) | IC50 (Neutrophil elastase) | IC50 (Glycine receptor) | IC50 (Leukotriene C4 synthase)

C[C@H]1COc2c(N3CCN(C)CC3)c(F)cc3c(=O)c(C(=O)O)cn1c23.C[C@H]1COc2c(N3CCN(C)CC3)c(F)cc3c(=O)c(C(=O)O)cn1c23.O [LEVOFLOXACIN]
Not Active: IC50 [1] | Ki [1] | IC50 [2] | IC50 [3] | IC50 (Cytochrome P450 2E1) | Ki (Cytochrome P450 2E1) | IC50 (Cathepsin G) | IC50 (Neutrophil elastase) | IC50 (Glycine receptor) | IC50 (Leukotriene C4 synthase)

CS(=O)(=O)Nc1ccc([N+](=O)[O-])cc1Oc1ccccc1 [NIMESULIDE]
Not Active: IC50 [1] | Ki [1] | IC50 [2] | IC50 [3] | IC50 (Cytochrome P450 2E1) | Ki (Cytochrome P450 2E1) | IC50 (Cathepsin G) | IC50 (Neutrophil elastase) | IC50 (Glycine receptor) | IC50 (Leukotriene C4 synthase)

NC(=O)N1c2ccccc2CC(=O)c2ccccc21 [OXCARBAZEPINE]
Not Active: IC50 [1] | Ki [1] | IC50 [2] | IC50 [3] | IC50 (Cytochrome P450 2E1) | Ki (Cytochrome P450 2E1) | IC50 (Cathepsin G) | IC50 (Neutrophil elastase) | IC50 (Glycine receptor) | IC50 (Leukotriene C4 synthase)
